The results in this text go back to patent US20250171438A1 (Agios Pharmaceuticals, Inc., priority 2022, published 2025).

Where two headings read alike, the source gives them in different places.

In this test the target is T1, human PAH with the R408W mutation (Homo sapiens, UniProt P00439, R408W).
T1 construct: expressed in transfected cells
T1 sequence (P00439 1-452 R408W): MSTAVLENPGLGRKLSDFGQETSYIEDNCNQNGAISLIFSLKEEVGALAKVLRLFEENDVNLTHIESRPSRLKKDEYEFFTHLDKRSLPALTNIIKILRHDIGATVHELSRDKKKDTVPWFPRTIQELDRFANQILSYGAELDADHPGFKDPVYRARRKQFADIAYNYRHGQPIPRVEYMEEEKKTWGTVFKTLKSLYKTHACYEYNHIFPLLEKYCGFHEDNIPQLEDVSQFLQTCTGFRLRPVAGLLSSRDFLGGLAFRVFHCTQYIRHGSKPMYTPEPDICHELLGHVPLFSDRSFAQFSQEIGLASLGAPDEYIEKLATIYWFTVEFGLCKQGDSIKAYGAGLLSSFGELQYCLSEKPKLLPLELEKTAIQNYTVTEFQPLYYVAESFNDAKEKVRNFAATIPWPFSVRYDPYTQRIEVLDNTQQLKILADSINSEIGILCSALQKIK
Put plainly: Cell Based Phenylalanine Flux Assay. The note with it: A375 cells expressing human R408W PAH, 13C-Tyrosine by LC-MS, average where tested multiple times, read-out: AC50.

Broadly, the AC50 is the midpoint of the concentration-response curve, whichever way the signal moves.

With `CN1CCN(c2nc(C(F)(F)F)c(C(=O)N3CCc4[nH]cnc4[C@@H]3c3nc4c(F)cccc4s3)o2)CC1` [Example 1624, (R)-(4-(4-fluorobenzo[d]thiazol-2-yl)-6,7-dihydro-1H-imidazo[4,5-c]pyridin-5(4H)-yl)(2-(4-methylpiperazin-1-yl)-4-(trifluoromethyl)oxazol-5-yl)methanone], for the setting “24 hrs compound incubation”, the AC50 was less than 0.5 µM.

In the case of `O=C(c1ncn2ccccc12)N1CCc2[nH]cnc2C1c1nc2ccc(Br)cc2[nH]1` (stereo not shown), where the note is “24 hrs with compound”, the AC50 fell in the range of 1 to 5 µM.

Regarding `Cc1nnc(CCC(=O)N2CCc3[nH]cnc3C2c2nc3cc(F)ccc3s2)s1` (stereo not shown), for the setting “24 hrs with compound”, the half-maximal activity concentration (AC50) was 1 to 5 µM.

Regarding `O=C(c1nnc(CCN2CCOCC2)o1)N1CCc2[nH]cnc2C1c1nc2ccccc2s1` (stereo not shown), the AC50 (24 hrs with compound) lay in the range of 1 to 5 µM.

Regarding `O=C(CC1CC1(F)F)N1CCc2[nH]cnc2[C@@H]1c1nc2ccccc2s1` (stereo partly drawn) [Example 1273, 1-((R)-4-(benzo[d]thiazol-2-yl)-6,7-dihydro-1H-imidazo[4,5-c]pyridin-5(4H)-yl)-2-(2,2-difluorocyclopropyl)ethanone], the AC50 (24 hrs compound incubation) is greater than 5 µM.

Turning to `O=C(CCc1nc(Cl)cs1)N1CCc2[nH]cnc2[C@@H]1c1nc2ccccc2s1` [Example 1024, (R)-1-(4-(benzo[d]thiazol-2-yl)-6,7-dihydro-1H-imidazo[4,5-c]pyridin-5(4H)-yl)-3-(4-chlorothiazol-2-yl)propan-1-one], where the note is “24 hrs compound incubation”, the AC50 is greater than 5 µM.

With `Cc1cccc2sc([C@H]3c4nc[nH]c4CCN3C(=O)c3cnco3)nc12` [Example 2014, (R)-(4-(4-methylbenzo[d]thiazol-2-yl)-6,7-dihydro-1H-imidazo[4,5-c]pyridin-5(4H)-yl)(oxazol-5-yl)methanone], the concentration at half-maximal activity (AC50) (24 hrs compound incubation) was greater than 5 µM.

In the case of `Cn1ncnc1C(=O)N1CCc2[nH]cnc2[C@H]1c1nc2c(C(F)(F)F)cccc2s1` [Example 2101, (S)-(1-methyl-1H-1,2,4-triazol-5-yl)(4-(4-(trifluoromethyl)benzo[d]thiazol-2-yl)-6,7-dihydro-1H-imidazo[4,5-c]pyridin-5(4H)-yl)methanone], under “24 hrs compound incubation”, the concentration at half-maximal activity (AC50) was in the range of 0.5 to 1 µM.

Turning to `CN(C)CCc1ccc2c(C(=O)N3CCc4[nH]cnc4[C@H]3c3nc4c(F)cccc4s3)cnn2c1` [Example 1599, (S)-(6-(2-(dimethylamino)ethyl)pyrazolo[1,5-a]pyridin-3-yl)(4-(4-fluorobenzo[d]thiazol-2-yl)-6,7-dihydro-1H-imidazo[4,5-c]pyridin-5(4H)-yl)methanone], the AC50 (24 hrs compound incubation) lay in the range of 0.5 to 1 µM.

With `COc1ccn2ncc(C(=O)N3CCc4[nH]cnc4C3c3nc4ccc(Br)cc4[nH]3)c2c1` (stereo not shown), the AC50 (24 hrs with compound) lay in the range of 1 to 5 µM.

For the molecule `CN1CCN(c2nc(Br)c(C(=O)N3CCc4[nH]cnc4[C@@H]3c3nc4c(F)cccc4s3)o2)CC1` [Example 2032, (R)-(4-bromo-2-(4-methylpiperazin-1-yl)oxazol-5-yl)(4-(4-fluorobenzo[d]thiazol-2-yl)-6,7-dihydro-1H-imidazo[4,5-c]pyridin-5(4H)-yl)methanone], the half-maximal activity concentration (AC50) (24 hrs compound incubation) was in the range of 1 to 5 µM.

In the case of `O=C(c1cnc(COc2ccccc2)s1)N1CCc2[nH]cnc2C1c1nc2ccccc2s1` (stereo not shown), the half-maximal activity concentration (AC50) (24 hrs with compound) is 1 to 5 µM.

`COCc1ncc(C(=O)N2CCc3[nH]cnc3[C@H]2c2nc3ccccc3s2)s1` [Example 1185]: the half-maximal activity concentration (AC50) (24 hrs compound incubation) was 0.5 to 1 µM.

Turning to “(S)-(4-(benzo[d]thiazol-2-yl)-6,7-dihydro-1H)-imidazo[4,5-c]pyridin-5(4H)-yl)(6-bromopyrazolo[1,5-a]pyridin-3-yl)methanone [Example 1045]”, the AC50 (24 hrs compound incubation) was 0.5 to 1 µM.

For the molecule `O=C(c1ccn2ncccc12)N1CCc2[nH]cnc2[C@H]1c1nc2ccccc2s1` [Example 1529], the half-maximal activity concentration (AC50) (24 hrs compound incubation) was 0.5 to 1 µM.

For `CC(C)(O)c1cc(C(=O)N2CCc3[nH]cnc3C2c2nc3ccccc3s2)sn1` (stereo not shown), the AC50 (24 hrs with compound) is greater than 5 µM.

Take `O=C(c1cnc(-c2ccccc2)o1)N1CCc2[nH]cnc2[C@H]1c1nc2ccccc2s1` [Example 1207]: the AC50 (24 hrs compound incubation) was less than 0.5 µM.

Consider `Cn1nc(Cl)nc1C(=O)N1CCc2[nH]cnc2[C@@H]1c1nc2ccccc2s1` [Example 1938, (R)-(4-(benzo[d]thiazol-2-yl)-6,7-dihydro-1H-imidazo[4,5-c]pyridin-5(4H)-yl)(3-chloro-1-methyl-1H-1,2,4-triazol-5-yl)methanone], for which the concentration at half-maximal activity (AC50) (24 hrs compound incubation) fell in the range of 1 to 5 µM.

As to `C[C@H]1CN(C(=O)c2ocnc2C2CC2)[C@@H](c2nc3c(F)cccc3s2)c2nc[nH]c21` [Example 1607, (4-cyclopropyloxazol-5-yl)((4R,7S)-4-(4-fluorobenzo[d]thiazol-2-yl)-7-methyl-6,7-dihydro-1H-imidazo[4,5-c]pyridin-5(4H)-yl)methanone], the AC50 (24 hrs compound incubation) fell in the range of 1 to 5 µM.

Take `O=C(c1oc(-c2ccccn2)nc1C1CC1)N1CCc2[nH]cnc2[C@H]1c1nc2ccccc2s1` [Example 1515]: the AC50 (24 hrs compound incubation) was less than 0.5 µM.

Turning to `O=C(c1nnc(-c2cnn(S(=O)(=O)C3CC3)c2)o1)N1CCc2[nH]cnc2[C@@H]1c1nc2ccccc2s1` [Example 1940, (R)-(4-(benzo[d]thiazol-2-yl)-6,7-dihydro-1H-imidazo[4,5-c]pyridin-5(4H)-yl)(5-(1-(cyclopropylsulfonyl)-1H-pyrazol-4-yl)-1,3,4-oxadiazol-2-yl)methanone], where the note is “24 hrs compound incubation”, the half-maximal activity concentration (AC50) was 1 to 5 µM.

On to `Cc1nnc(C(=O)N2CCc3[nH]cnc3[C@@H]2c2nc3ccccc3s2)s1` [Example 1042, (R)-(4-(benzo[d]thiazol-2-yl)-6,7-dihydro-1H-imidazo[4,5-c]pyridin-5(4H)-yl)(5-methyl-1,3,4-thiadiazol-2-yl)methanone], for which, for the setting “24 hrs compound incubation”, the half-maximal activity concentration (AC50) was greater than 5 µM.

Take `O=C(c1cnc(-c2ccc(F)cn2)s1)N1CCc2[nH]cnc2[C@@H]1c1nc2ccccc2s1` [Example 1340, (R)-(4-(benzo[d]thiazol-2-yl)-6,7-dihydro-1H-imidazo[4,5-c]pyridin-5(4H)-yl)(2-(5-fluoropyridin-2-yl)thiazol-5-yl)methanone]: the AC50 (24 hrs compound incubation) lay within 1 to 5 µM.

As to `CC(C)(O)c1nc(Cl)c(C(=O)N2CCc3[nH]cnc3[C@H]2c2nc3c(F)cccc3s2)s1` [Example 2087, (S)-(4-chloro-2-(2-hydroxypropan-2-yl)thiazol-5-yl)(4-(4-fluorobenzo[d]thiazol-2-yl)-6,7-dihydro-1H-imidazo[4,5-c]pyridin-5(4H)-yl)methanone], the AC50 (24 hrs compound incubation) was in the range of 1 to 5 µM.

On to `C=Cc1ccc2c(C(=O)N3CCc4[nH]cnc4[C@H]3c3nc4ccccc4s3)cnn2c1` [Example 1231], for which the AC50 (24 hrs compound incubation) was in the range of 0.5 to 1 µM.

On to `O=C(c1cnn2cc(Cl)ccc12)N1CCc2[nH]cnc2[C@@H]1c1nc2c(F)cccc2s1` [Example 1238, (R)-(6-chloropyrazolo[1,5-a]pyridin-3-yl)(4-(4-fluorobenzo[d]thiazol-2-yl)-6,7-dihydro-1H-imidazo[4,5-c]pyridin-5(4H)-yl)methanone], for which the AC50 (24 hrs compound incubation) fell in the range of 1 to 5 µM.

On to `Cn1nc(C(F)F)nc1C(=O)N1CCc2[nH]cnc2[C@H]1c1nc2ccccc2s1` [Example 2171], for which the AC50 (24 hrs compound incubation) was 1 to 5 µM.

`O=C(c1cnco1)N1CCCc2[nH]cnc2C1c1nc2ccccc2s1` (stereo not shown): the half-maximal activity concentration (AC50) (24 hrs with compound) is 1 to 5 µM.

On to `Cc1nc(C=CC2CC2)oc1C(=O)N1CCCc2[nH]cnc2C1c1nc2ccccc2s1` (stereo not shown), for which, where the note is “24 hrs with compound”, the AC50 is greater than 5 µM.

For `Cc1ncoc1C(=O)N1CCc2[nH]cnc2[C@H]1c1nc2ccccc2[nH]1` [Example 993, (S)-(4-(1H-benzo[d]imidazol-2-yl)-6,7-dihydro-1H-imidazo[4,5-c]pyridin-5(4H)-yl)(4-methyloxazol-5-yl)methanone], the half-maximal activity concentration (AC50) (24 hrs compound incubation) was less than 0.5 µM.

Turning to `O=C(c1cn[nH]c1Cl)N1CCc2[nH]cnc2[C@@H]1c1nc2ccccc2s1` [Example 2035, (R)-(4-(benzo[d]thiazol-2-yl)-6,7-dihydro-1H-imidazo[4,5-c]pyridin-5(4H)-yl)(5-chloro-1H-pyrazol-4-yl)methanone], the AC50 (24 hrs compound incubation) is 1 to 5 µM.

In the case of `O=C(CCc1nccs1)N1CCc2[nH]cnc2[C@@H]1c1nc2ccc(Br)cc2[nH]1` [Example 909, (R)-1-(4-(6-bromo-1H-benzo[d]imidazol-2-yl)-6,7-dihydro-1H-imidazo[4,5-c]pyridin-5(4H)-yl)-3-(thiazol-2-yl)propan-1-one], the half-maximal activity concentration (AC50) (24 hrs compound incubation) is greater than 5 µM.

Regarding `Cn1nc(Cl)nc1C(=O)N1CCc2[nH]cnc2[C@H]1c1nc2ccccc2s1` [Example 1937], under “24 hrs compound incubation”, the half-maximal activity concentration (AC50) is 0.5 to 1 µM.

`Cc1nn2ccccc2c1C(=O)N1CCc2[nH]cnc2[C@@H]1c1nc2ccccc2s1` [Example 1166, (R)-(4-(benzo[d]thiazol-2-yl)-6,7-dihydro-1H-imidazo[4,5-c]pyridin-5(4H)-yl)(2-methylpyrazolo[1,5-a]pyridin-3-yl)methanone]: the AC50 (24 hrs compound incubation) lay within 0.5 to 1 µM.

In the case of `O=C(c1nnc(-c2ccc(F)cn2)o1)N1CCc2[nH]cnc2[C@@H]1c1nc2c(F)cccc2s1` [Example 1712, (R)-(4-(4-fluorobenzo[d]thiazol-2-yl)-6,7-dihydro-1H-imidazo[4,5-c]pyridin-5(4H)-yl)(5-(5-fluoropyridin-2-yl)-1,3,4-oxadiazol-2-yl)methanone], under “24 hrs compound incubation”, the AC50 was less than 0.5 µM.

As for `O=C(c1cnc(C2CC2)o1)N1CCc2[nH]cnc2[C@@H]1c1nc2c(F)cccc2s1` [Example 1330, (R)-(2-cyclopropyloxazol-5-yl)(4-(4-fluorobenzo[d]thiazol-2-yl)-6,7-dihydro-1H-imidazo[4,5-c]pyridin-5(4H)-yl)methanone], the AC50 (24 hrs compound incubation) fell in the range of 1 to 5 µM.

Turning to `Cc1ccn2ncc(C(=O)N3CCc4[nH]cnc4[C@H]3c3nc4ccccc4s3)c2c1` [Example 1125], the half-maximal activity concentration (AC50) (24 hrs compound incubation) is 1 to 5 µM.
